Reference: PubChem BioAssay (NCI)
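Following 48 hours of exposure in 96-well plates, responses at five concentrations were used to interpolate endpoints linearly. The concentration for full growth arrest is given as TGI.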

Tests used:
Assay in all cases: NCI anticancer screen, dose series, 48 h
[1] = tested on: CAKI-1 renal
[2] = tested on: HOP-62 NSCLC
[3] = tested on: TK-10 renal
[4] = tested on: HL-60(TB) leukemia
[5] = tested on: HCC-2998 colon
[6] = tested on: OVCAR-8 ovarian
[7] = tested on: MALME-3M melanoma
[8] = tested on: SK-MEL-2 melanoma
[9] = tested on: OVCAR-5 ovarian
[10] = tested on: SK-OV-3 ovarian
[11] = tested on: IGROV1 ovarian
[12] = tested on: SF-539 CNS
[13] = tested on: SN12C renal
[14] = tested on: SW-620 colon

Structure (SMILES) | TGI [1] [µM] | TGI [2] [µM] | TGI [3] [µM] | TGI [4] [µM] | TGI [5] [µM] | TGI [6] [µM] | TGI [7] [µM] | TGI [8] [µM] | TGI [9] [µM] | TGI [10] [µM] | TGI [11] [µM] | TGI [12] [µM] | TGI [13] [µM] | TGI [14] [µM]
COC(=O)[C@@H]1C[C@H]2OC(=O)CC[C@]2(C)O[C@H]1[C@H]1O[C@@](C)(O)CCC[C@H]1C | > 50 | > 50 | > 50 | 30.6 | > 50 | > 50 | > 50 | > 50 | > 50 | > 50 | > 50 | > 50 | > 50 | > 50
N#Cc1c(-c2ccc(Cl)cc2)c2c(n(C3OC(CO)C(O)C(O)C3O)c1=S)CCCC2 (stereo not given) | > 100 | > 100 | > 100 | 58.9 | > 100 | > 100 | > 100 | > 100 | > 100 |  | > 100 | > 100 | > 100 | > 100
CN(C)/C=C/C(=CC=[N+](C)C)/C=C/N(C)C | > 100 | > 100 | > 100 | > 100 | > 100 | > 100 | > 100 | > 100 | > 100 | > 100 | > 100 | > 100 | > 100 | > 100
CC(C)(C)C1=C(Br)C(C(C)(C)C)OP1(=O)O (stereo not given) | > 100 | > 100 | > 100 | > 100 | > 100 | > 100 | > 100 | > 100 | > 100 | > 100 | > 100 | > 100 | > 100 | 
COC(=O)[C@@H]1C=C[C@H](OC2OC(COC(C)=O)C(OC(C)=O)C(OC(C)=O)C2OC(C)=O)n2c(=O)n(-c3ccccc3)c(=O)n21 (stereo not given in full) | 2.7 | 28.1 | 3.74 | 4.39 | 21.9 | 8.03 | 4.07 | 5.05 | 12.6 | 29.4 | 12 | 8.21 | 7.95 | 3.41
Nc1ccccc1CCN1CCN(CCCc2ccccc2)CC1 | > 100 | > 100 | > 100 | > 100 | 39 | > 100 | 31.6 | > 100 | > 100 | > 100 | > 100 | > 100 | > 100 | > 100
COC(=O)C1=C(OC(=O)/C(=C/c2ccccc2)c2ccc(Cl)cc2Cl)C(C(=O)OC)[C@@]2(O)[C@@H](C(=O)OC)[C@H](C)C[C@@H]1[C@@H]2C(=O)OC (stereo not given in full) | > 100 | > 100 | > 100 | > 100 | > 100 | > 100 | > 100 | > 100 | > 100 | > 100 | > 100 | > 100 | > 100 | > 100
Cc1ccc(C(=O)O)c(/C=C2\Cc3ccc(C)cc3C2=O)c1 | > 100 | > 100 | > 100 | 98.6 | > 100 | > 100 | > 100 | > 100 | > 100 |  | > 100 | 49.3 | > 100 | > 100
Cc1ccc(C2(O)CSC(=NC34CC5CC(CC(C5)C3)C4)N2C(P(=O)(O)O)P(=O)(O)O)cc1 (stereo not given) | > 100 | > 100 | > 100 | > 100 | > 100 | > 100 | > 100 | > 100 | > 100 | > 100 | > 100 | > 100 | > 100 | > 100
N#Cc1ccc(-c2nc3c(N)ncnc3o2)cc1 | > 100 | > 100 | > 100 | > 100 | > 100 | > 100 |  | > 100 | > 100 |  | > 100 | > 100 | > 100 | > 100
COc1ccc2nc(N/N=C/c3sccc3C)cc(C)c2c1 | > 100 | 36.3 | 28.1 | 47.6 | 41.2 | > 100 | 31.3 | 63.1 | 61.3 | 32.1 | 32.4 |  | 48.2 | 65
C=CCn1c(N)c(C#N)c(C#N)c1CCC | > 100 | > 100 | > 100 | > 100 | > 100 | > 100 | > 100 | > 100 | > 100 | > 100 | > 100 | > 100 | > 100 | > 100
Nn1c(C23CC4CC(CC(C4)C2)C3)n[nH]c1=S | > 100 | > 100 | > 100 | > 100 | > 100 |  | > 100 | > 100 | > 100 | > 100 | > 100 | > 100 | > 100 | > 100
N[C@@H]1CCN(c2c(F)cc3c(=O)c(C(=O)O)cn4c3c2Oc2c-4ccc3c2ccc2ccccc23)C1 | > 100 | > 100 | 40 | > 100 | 3.56 | > 100 |  | > 100 | > 100 | > 100 | 36.3 | > 100 | > 100 | > 100
CCC(CC)NC1=C(NC(C)=O)C(=O)c2ccccc2C1=O |  | > 50 | > 50 | > 50 | > 50 | > 50 | > 50 | > 50 |  | > 50 | > 50 | > 50 | > 50 | > 50
O=C(NN1C(=O)C(Cl)C1c1ccc(Cl)cc1)c1c(Cl)c(Cl)c(Cl)c(Cl)c1-c1nc2ccccc2[nH]1 (stereo not given) | 23.2 | > 100 |  | 59.6 | 30.9 | 43.7 | 63.4 | 47.1 | > 100 | > 100 | 45.8 | > 100 | 83.2 | > 100
S=C(N/N=C/c1ccccn1)N1CCCCC1 | > 100 |  | > 100 | 0.264 | > 100 | > 65.6 | 7.57 | 18.1 | > 100 | > 38.8 |  | 0.749 | 1.96 | > 100
